Where “and” joins values, the source holds several entries; their conditions need not be identical. Identical values can stand only once. Values belong to the compound of their own block, whether it stands above or below them.
Tested on: 885512-296-R-J2-PDC complex spheroid viability
Assay: Anticancer human tumor 885512-296-R-J2-PDC patient-derived breast carcinoma cell line growth inhibition
Conditions: for viability, T/C: stronger effect = lower value
Method in brief: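 Complex spheroids of tumor cells with HUVEC and human MSCs, exposed to iadademstat combined with other agents. Each agent tested in half-log steps from near clinical Cmax (else 10 microM top), DMSO ≤0.25%.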

[1] = curve of first compound, second compound 0.1 µM
[2] = curve of first compound, second compound 0.316 µM
[3] = curve of first compound, second compound 1 µM
[4] = curve of first compound, second compound 3.16 µM
[5] = curve of first compound, second compound 10 µM
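Also: spheroids exposed to agents for 7 days before viability read.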

Structure (SMILES): CC[C@@]1(O)C(=O)OCc2c1cc1n(c2=O)Cc2cc3c(CN(C)C)c(O)ccc3nc2-1 + NC1CCC(NC2CC2c2ccccc2)CC1
IC50 [1]: 0.517 nM
IC50 [2]: 0.571 nM
IC50 [3]: 0.48 nM
IC50 [4]: 0.497 nM
IC50 [5]: 0.398 nM
viability, T/C (second compound 0.1 µM, first compound 0.000316 µM): 74%
viability, T/C (second compound 0.1 µM, first compound 0.001 µM): 17.8%
viability, T/C (second compound 0.1 µM, first compound 0.00316 µM): 9.2%
viability, T/C (second compound 0.1 µM, first compound 0.01 µM): 3.46%
viability, T/C (second compound 0.1 µM, first compound 0.0316 µM): 7.41%
viability, T/C (second compound 0.1 µM, first compound 0.1 µM): 12.3%
viability, T/C (second compound 0.316 µM, first compound 0.000316 µM): 81.8%
viability, T/C (second compound 0.316 µM, first compound 0.001 µM): 19.7%
viability, T/C (second compound 0.316 µM, first compound 0.00316 µM): 7.03%
viability, T/C (second compound 0.316 µM, first compound 0.01 µM): 3.42%
viability, T/C (second compound 0.316 µM, first compound 0.0316 µM): 5.16%
viability, T/C (second compound 0.316 µM, first compound 0.1 µM): 7.04%
viability, T/C (second compound 1 µM, first compound 0.000316 µM): 66.9%
viability, T/C (second compound 1 µM, first compound 0.001 µM): 20.4%
viability, T/C (second compound 1 µM, first compound 0.00316 µM): 6.72%
viability, T/C (second compound 1 µM, first compound 0.01 µM): 5.59%
viability, T/C (second compound 1 µM, first compound 0.0316 µM): 3.12%
viability, T/C (second compound 1 µM, first compound 0.1 µM): 4.36%
viability, T/C (second compound 3.16 µM, first compound 0.000316 µM): 71.7%
viability, T/C (second compound 3.16 µM, first compound 0.001 µM): 16.6%
viability, T/C (second compound 3.16 µM, first compound 0.00316 µM): 5.15%
viability, T/C (second compound 3.16 µM, first compound 0.01 µM): 6.21%
viability, T/C (second compound 3.16 µM, first compound 0.0316 µM): 2.51%
viability, T/C (second compound 3.16 µM, first compound 0.1 µM): 2.21%
viability, T/C (second compound 10 µM, first compound 0.000316 µM): 59.4%
viability, T/C (second compound 10 µM, first compound 0.001 µM): 13.6%
viability, T/C (second compound 10 µM, first compound 0.00316 µM): 5.78%
viability, T/C (second compound 10 µM, first compound 0.01 µM): 3.89%
viability, T/C (second compound 10 µM, first compound 0.0316 µM): 2.72%
viability, T/C (second compound 10 µM, first compound 0.1 µM): 1.8%

Structure (SMILES): Nc1ncn(C2CC(O)C(CO)S2)c(=O)n1 (configuration not stated) + NC1CCC(NC2CC2c2ccccc2)CC1
IC50 [1]: 5.37 nM
IC50 [2]: 4.73 nM
IC50 [3]: 4.84 nM
IC50 [4]: 4.82 nM
IC50 [5]: 2.75 nM
viability, T/C (second compound 0.1 µM, first compound 0.000949 µM): 81.1%
viability, T/C (second compound 0.1 µM, first compound 0.003 µM): 67.9%
viability, T/C (second compound 0.1 µM, first compound 0.00949 µM): 32.5%
viability, T/C (second compound 0.1 µM, first compound 0.03 µM): 15.5%
viability, T/C (second compound 0.1 µM, first compound 0.0949 µM): 12.6%
viability, T/C (second compound 0.1 µM, first compound 0.3 µM): 11.3%
viability, T/C (second compound 0.316 µM, first compound 0.000949 µM): 93%
viability, T/C (second compound 0.316 µM, first compound 0.003 µM): 59%
viability, T/C (second compound 0.316 µM, first compound 0.00949 µM): 36.4%
viability, T/C (second compound 0.316 µM, first compound 0.03 µM): 20.6%
viability, T/C (second compound 0.316 µM, first compound 0.0949 µM): 12.4%
viability, T/C (second compound 0.316 µM, first compound 0.3 µM): 10%
viability, T/C (second compound 1 µM, first compound 0.000949 µM): 99.2%
viability, T/C (second compound 1 µM, first compound 0.003 µM): 62.2%
viability, T/C (second compound 1 µM, first compound 0.00949 µM): 32.8%
viability, T/C (second compound 1 µM, first compound 0.03 µM): 17.3%
viability, T/C (second compound 1 µM, first compound 0.0949 µM): 11.5%
viability, T/C (second compound 1 µM, first compound 0.3 µM): 6.83%
viability, T/C (second compound 3.16 µM, first compound 0.000949 µM): 83%
viability, T/C (second compound 3.16 µM, first compound 0.003 µM): 61.6%
viability, T/C (second compound 3.16 µM, first compound 0.00949 µM): 33.3%
viability, T/C (second compound 3.16 µM, first compound 0.03 µM): 18.8%
viability, T/C (second compound 3.16 µM, first compound 0.0949 µM): 12.4%
viability, T/C (second compound 3.16 µM, first compound 0.3 µM): 8.51%
viability, T/C (second compound 10 µM, first compound 0.000949 µM): 79.8%
viability, T/C (second compound 10 µM, first compound 0.003 µM): 47.5%
viability, T/C (second compound 10 µM, first compound 0.00949 µM): 23.8%
viability, T/C (second compound 10 µM, first compound 0.03 µM): 11.2%
viability, T/C (second compound 10 µM, first compound 0.0949 µM): 9.62%
viability, T/C (second compound 10 µM, first compound 0.3 µM): 6.05%

IC50 (curve of compound): < 3.16 nM
Structure (SMILES): O=C(C=Cn1cnc(-c2cc(C(F)(F)F)cc(C(F)(F)F)c2)n1)NNc1cnccn1
viability, T/C (compound 0.00316 µM): 31.1% and 23.7%
viability, T/C (compound 0.01 µM): 5.75% and 8.41%
viability, T/C (compound 0.0316 µM): 3.88% and 2.23%
viability, T/C (compound 0.1 µM): 6.09% and 0.68%
viability, T/C (compound 0.316 µM): 7.95% and 0.57%
viability, T/C (compound 1 µM): 6.27% and 0.53%
